Tests used:
[1] = tested on: ALVA-41 cells tumor in nude mice; assay: tumor growth in nude mice transplanted subcutaneously with ALVA-41 cells; assay type: in vivo
Protocol: In order to study the growth of primary tumor, 1 ml of PBS solution containing ALVA-41 cells (5×10^6 cells) was injected subcutaneously into the right flank of a male nude mouse. Separately, a solution of mouse melanoma B16 cells (1×10^6 cells) was likely injected subcutaneously into the right flank of an inbred wild-type (WT) mouse, CatE^−/− mouse and CatE^Tg mouse. The size of the tumor was measured with a caliper, and the tumor volume was calibrated by ab^2/2 (where a and b represent a maximum dimension of the central section and a minimum dimension of the central section, respectively). As the size of the heterograft of the ALVA-41 cell reached approximately 100 mm^3 (approximately at day 12 after injection), animals were divided into two groups of each 5 animals. To the two animal groups, respectively, purified cathepsin E (200 μg per kg of body weight per day) and physiological saline were injected into the central portion of the tumor for 16 days. For a measurement for the tumor weight and an immunohistochemical study, […] reached approximately 400 mm^3. For a study on metastasis, melanoma B16 cells (2×10^5 cells in 50 μl of PBS solution) was injected into a tail vein of a Wt mouse, CatE^−/− mouse and CatE^Tg. The mice were then anesthetized at day 22 after injection and killed with a lethal amount of diethylether, followed by removing the lungs and counting the number of black metastasis colonies.
As the tumor volume reached ˜[…] after subcutaneous injection, cathepsin E (200 μg/kg/day) or physiological saline was subcutaneously injected into the central portion of the tumor for 16 days. […] Data are represented as an average value±SD of the value obtained from three mice per each group. […] The TUNEL assay was carried out by reacting with diaminobenzidine and counter-staining tissue slices with 1% methyl green. Data represent the result obtained from five mice per group. In the figure, the lower image is an expanded version of the upper image. In the figure, a bar scale represents 50 μm.

[2] = tested on: human prostate cancer ALVA-41 cells; assay: measurement for apoptosis (morphology, annexin V staining, TUNEL assay), ALVA-41 cells; assay type: cell-based; conditions: ALVA-41 cells
Protocol: The cells were measured for a morphological variation of apoptosis by phase contrast microscopy. The cells of prophase and post-phase apoptosis were detected by annexin V staining and TUNEL assay. In order to carry out the annexin V staining of ALVA-41 cells, the cells were exposed to cathepsin E or cathepsin L for 4 hours and centrifuged. After centrifugation, the separated cells were washed twice with PBS and incubated with fluorescein isothiocyanate-conjugated annexin V for 10 minutes at room temperature in a dark place. The cells that were positive as a result of the annexin V staining were then detected with fluorescence microscope. The TUNEL assay was carried out for the incubated tumor cells using Apop Tag Peroxidase Apoptosis Detection Kit and for heterografts using Tumor TACS In Situ Apoptosis Detection Kit.
In the figure, an indicating bar scale represents 50 μm. […] In the figure, an indicating bar scale represents 50 μm.

[3] = tested on: various human prostate cancer cell lines; assay: sensitivity of human prostate cancer cell lines to cathepsin E-induced apoptosis; assay type: cell-based
Protocol: The survival rate of cells was measured by Cell Counting Kit-8 in accordance with a manufacturer's manual. The method will be described briefly as follows. A 96-well (each 100 μl) plate was inoculated with cells (1×10^4 cells) and incubated for 24 hours, and the cells were incubated in a non-serum culture medium Opti-MEM together with a given concentration of each cathepsin purified from rat stomach (References #27 and #60-#62). Thereafter, the kit reagent (10 μl) was added to each well and the wells were incubated for another 1 hour. After incubation, each well was measured at the absorbance of 450 nm with a microplate reader.
In this assay, the cells to be tested were incubated to a ˜80% confluent state and then together with cathepsin E (100 μg/ml) or physiological saline at 37° C. and pH 7.4 for 20 hours, followed by measurements for the cell survival rate by a colorimetric assay. The cell survival rate is represented as a percentage of a corresponding value to the cells treated with physiological saline, and the data is represented as an average value±SD from the data obtained by four separate experiments. In this value, *p<0.001 represents a corresponding value to the cells treated with physiological saline. […] In this experiment, the cells were biotinylated with sulfo-NHS-SS-biotin as a […], decomposable reagent and lyzed, and the resulting cell lysate was incubated with streptoavidin-agarose beads at 4° C. for 2 hours. After the beads were washed, the related proteins were subjected to an immunoblot analysis using an anti-TRAIL antibody or an antibody to a TRAIL membrane-related receptor. The cell lysate portion was also subjected to a direct immunoblot analysis using an anti-β-actin antibody. As an alternative method, a culture medium of each cell line was immunoblot-analyzed using an anti-OPG antibody. […] Thereafter, the immunoblot was analyzed for its concentration in order to determine a quantity of a soluble TRAIL trimer. […]

In the case of cathepsin E, the “growth of tumor compared to saline control” value ([1]; 200 μg/kg daily for 16 days into central portion of tumor, start at approx. 100 mm^3) is reported as “grown in a remarkably controlled manner”, the “weight of the tumor versus control group” value ([1]; 400 μg/kg once per day for 10 days, start at approx. 400 mm^3) is reported as “significantly lower” and the “effect of suppressing the tumor” value ([1]; daily dose of 30 μg/kg or lower) is reported as “little recognized”. The “effect upon regression of tumor” value ([1]; daily dose of 50 μg/kg) was “rather decreased”, the “toxicity toward normal tissues and cells” value ([1]; nude mice administered cathepsin E) was “no effect upon toxicity toward normal tissues and cells can be recognized at all” and the “apoptosis cells in tumor by TUNEL stain” value ([1]; tumors after 10 days administration) was “a number of the apoptosis cells were observed”. The “staining with annexin V and TUNEL reagent” value ([2]; 50 μg/ml) was “positive”, the “morphological changes of treated cells” value ([2]; microscopy, 100 μg/ml) was “morphological features of apoptosis” and the “induction of apoptosis in human prostate cancer cell lines” value ([3]; 100 μg/ml, 37° C., pH 7.4, 20 hours) was “induced apoptosis for all cells”. For the same substance, the “sensitivity as to cell survival effect, PC-3 cells relative to PPC-1 cells” value ([3]; PC-3 versus PPC-1) was “approximately 20 times” and the “order of increasing sensitivity of cell lines to cathepsin E-induced apoptosis” value ([3]; PPC-1, DU145, ALVA-41, PC-3) was “PPC-1<DU145≦ALVA-41<PC-3”.
